Usually inhibition stands for the drop in the measured response relative to a control, in per cent. One may read the GI50 as the concentration giving 50% growth inhibition. Usually IC50 stands for the midpoint of a concentration-inhibition curve.

One assay deals with DU-145. Briefly: NCI 60 antitumor screening (single dose / five doses). The format is cell-based. The note with it: Homo sapiens; for inhibition at 10 µM: DU-145 (prostate cancer), single dose 10 μM, read-out: Growth inhibition percentage (GI %); for GI50: DU-145, five doses (0.01–100 μM), read-out: GI50.
A further assay concerns BT-549. Described as above. The assay is classed as cell-based. As to conditions: Homo sapiens; for inhibition at 10 µM: BT-549 (breast cancer), single dose 10 μM, read-out: Growth inhibition percentage (GI %); for GI50: BT-549, five doses (0.01–100 μM), read-out: GI50.
The test system of another assay is 786-0. The description is as above. The format is cell-based. As to conditions: Homo sapiens; for inhibition at 10 µM: 786-0, 786-0 (renal cancer), single dose 10 μM, read-out: Growth inhibition percentage (GI %); for GI50: 786-0, five doses (0.01–100 μM), read-out: GI50.
The subject of the next assay is RPMI-8226. The assay is described as above. The format is cell-based. The note with it: Homo sapiens; for inhibition at 10 µM: RPMI-8226 (leukaemia), single dose 10 μM, read-out: Growth inhibition percentage (GI %); for GI50: RPMI-8226, five doses (0.01–100 μM), read-out: GI50.
A further assay concerns the target T1, IDH2^R140Q (Homo sapiens, UniProt P48735, R140Q).
T1 sequence (P48735 40-452 R140Q): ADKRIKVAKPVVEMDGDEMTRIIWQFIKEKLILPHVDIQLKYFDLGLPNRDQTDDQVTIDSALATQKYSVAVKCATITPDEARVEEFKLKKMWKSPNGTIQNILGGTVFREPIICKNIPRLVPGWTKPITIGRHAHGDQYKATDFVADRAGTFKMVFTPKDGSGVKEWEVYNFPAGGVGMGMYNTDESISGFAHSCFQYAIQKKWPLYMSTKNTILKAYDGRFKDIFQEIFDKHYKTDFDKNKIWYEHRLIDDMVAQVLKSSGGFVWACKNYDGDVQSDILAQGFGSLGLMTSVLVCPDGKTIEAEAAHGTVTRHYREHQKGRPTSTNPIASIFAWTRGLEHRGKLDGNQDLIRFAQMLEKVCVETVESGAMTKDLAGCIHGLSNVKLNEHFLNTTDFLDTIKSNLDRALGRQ
Briefly: biochemical.

A further assay deals with UACC-257. Description: NCI 60 antitumor screening (single dose / five doses). The format is cell-based. The note with it: Homo sapiens; for inhibition at 10 µM: UACC-257 (melanoma), single dose 10 μM, read-out: Growth inhibition percentage (GI %); for GI50: UACC-257, five doses (0.01–100 μM), read-out: GI50.

As for `Oc1ccccc1/C=N/Nc1nc(N/N=C/c2ccccc2O)nc(N2CCOCC2)n1` [compound 6a, 2-[(1e)-(2-{4-[(E)-2-[(2-Hydroxyphenyl)methylidene]hydrazin-1-yl]-6-(morpholin-4-yl)-1,3,5-triazin-2-yl}hydrazin-1-ylidene)methyl]phenol], the inhibition at 10 µM is 64.5% with DU-145; 23.7% in the assay with BT-549; 69.7% in the assay with 786-0; 46.4% with RPMI-8226; 46.7% in the assay on UACC-257. Moreover, the GI50 in the assay on DU-145 was 6090 nM; with BT-549, 5190 nM; with 786-0, 710 nM; with RPMI-8226 it was 2780 nM; in the assay with UACC-257 it was 6530 nM. Besides, 373 ± 18.2 nM corresponded to half-maximal inhibition at IDH2^R140Q (IC50).
Take `Clc1cccc(/C=N/Nc2nc(N/N=C/c3cccc(Cl)c3)nc(N3CCOCC3)n2)c1` [compound 6d, 2,4-Bis[(E)-2-[(3-chlorophenyl)methylidene]hydrazin-1-yl]-6-(morpholin-4-yl)-1,3,5-triazine]: the inhibition at 10 µM with DU-145 came out at 57.5%; in the assay with BT-549, 7.26%; with 786-0, 69.4%; in the assay on RPMI-8226 it was 61.2%; in the assay with UACC-257, 60.9%. Besides, the GI50 worked out at 2620 nM in the assay with DU-145; 3220 nM in the assay with BT-549; 1070 nM in the assay with 786-0; 1900 nM in the assay on RPMI-8226; 2470 nM in the assay with UACC-257. In addition, the IC50 against IDH2^R140Q came to 1870 ± 91.2 nM.
Turning to `CN(C)c1ccc(/C=N/Nc2nc(N/N=C/c3ccc(N(C)C)cc3)nc(N3CCOCC3)n2)cc1` [compound 6g, 4-[(1e)-(2-{4-[(E)-2-{[4-(dimethylamino)phenyl]methylidene}hydrazin-1-yl]-6-(morpholin-4-yl)-1,3,5-triazin-2-yl}hydrazin-1-ylidene)methyl]-N,N-dimethylaniline], the inhibition at 10 µM with DU-145 was 7.27%; in the assay on BT-549, -5.53%; in the assay on 786-0, 15.4%; in the assay with RPMI-8226, 65%; in the assay on UACC-257 it was -2.69%. The midpoint of inhibition against IDH2^R140Q, the IC50, lay at 336 ± 16.4 nM.
For the molecule `Clc1cccc(/C=N/Nc2nc(N/N=C/c3cccc(Cl)c3)nc(N3CCCCC3)n2)c1` [compound 7d, 2,4-Bis[(E)-2-[(3-Chlorophenyl)methylidene]hydrazin-1-yl]-6-(piperidin-1-yl)-1,3,5-triazine], the inhibition at 10 µM in the assay with DU-145 is 5.38%; in the assay with BT-549, 5.13%; in the assay with 786-0, 4.76%; with RPMI-8226, 27.6%; in the assay with UACC-257, -11.1%. The molecule also yielded an IC50 at IDH2^R140Q of 370 ± 18 nM.
`CN(C)c1ccc(/C=N/Nc2nc(N/N=C/c3ccc(N(C)C)cc3)nc(N3CCCCC3)n2)cc1` [compound 7g, 4-[(1e)-(2-{4-[(E)-2-{[4-(dimethylamino)phenyl]methylidene}chydrazin-1-yl]-6-(piperidin-1-yl)-1,3,5-triazin-2-yl}hydrazin-1-ylidene)methyl]-N,N-dimethylaniline]: the inhibition at 10 µM was 22.5% in the assay with DU-145; -10.6% in the assay with BT-549; 11.8% with 786-0; 67.4% with RPMI-8226; -4.45% in the assay with UACC-257. For the same molecule, the GI50 with DU-145 was 3920 nM; in the assay on BT-549 it was 1550 nM; with 786-0 it was 1690 nM; with RPMI-8226 it was 1920 nM; in the assay with UACC-257 it was 1830 nM. At IDH2^R140Q, this molecule displayed an IC50 of 505 ± 24.7 nM.
